Test system: methane production in rumen fluid
Assay: Rumen in vitro (RIV) assay, methane production from rumen fluid incubations
Type: cell-based, cattle
Conditions: Bos taurus, read-out: RIV % methane reduction +/− SD
Protocol: The compounds of the present invention were initially screened for activity using an in vitro fully automated incubation system for the measurement of total gas production and gas composition (methane and hydrogen). The system used is described in detail in the paper by Muetzel et al. (2014; Animal Feed Science and Technology 196, 1-11). The system in this specification is referred to as the rumen in vitro system or RIV. The RIV system provides a relatively simple tool for determining the rate and production of methane and also whether the rate and production of methane is inhibited or reduced by a particular compound or feed. Rumen in vitro assays use rumen fluid from donor animals (typically either sheep or cattle) which is typically combined with a buffer and then incubated in sealed fermentation vessels at 39° C. for either 24 or 48 h. These assays systems have been well-characterised and used by the scientific community over the last two decades (Rymer et al. 2005). The system that has been used here to characterise the effects of inhibitors on methane production and gas production, and the formation of H2, was described by Muetzel et al. (2014). Rumen in vitro assay systems reflect what can occur in the rumen in vivo, but only short-term, due to their short incubation times (typically not exceeding 48 h) which is limited by its buffering capacity and the fact that it is a closed system. Stock solutions of inhibitors were re-suspended in dimethylformamide (DMF) at concentrations 1000-fold higher than the highest used for the assays. Any further dilutions were also prepared using DMF. The total amount of inhibitor solution added to the rumen fluid-buffer mixture (60 mL) was 60 μl. Incubations used 60 ml of medium containing 12 ml of filtered rumen fluid and 48 ml of buffer in serum bottles for 24-48 h, essentially as described by Muetzel et al. (2014). Two fistulated cattle were used as donor animals for rumen fluid and treatments were incubated in duplicate bottles. Sets of duplicate incubation vials that contained ryegrass (with rumen fluid-buffer mixture), and ryegrass with 30 μM bromoethanesulfonate (BES) were also incubated as negative and positive controls, respectively. One experiment consists of 2 replicates of an inhibitor at any one concentration run at the same time, and a run can contain up to 32 bottle, including positive (30 µM BES) and negative (no inhibitor added) controls. Compound 1, for example, was tested using the 60 mL rumen in vitro assay system at 50 μM, 10 μM, and 2 μM final concentrations and compared to a positive control with 30 µM BES.

Structure (SMILES)	inhibition at 50 µM [%]	inhibition at 10 µM [%]	inhibition at 2 µM [%]
O=C(O)CCC(=O)N1N=C(c2ccc(Cl)cc2)CC1c1ccc(F)c(F)c1 (stereo not drawn) [Compound 112, 4-(3-(4-Chlorophenyl)-5-(3,4-difluorophenyl)-4,5-dihydro-1H-pyrazol-1-yl)-4-oxobutanoic acid]	21.7 ± 0.9		
COc1cccc(-c2cccc(C3=NN(C(=O)CCC(=O)O)C(c4ccc5nccnc5c4)C3)c2)c1 (stereo not drawn) [Compound 97, 4-(3-(3′-Methoxy-[1,1′-biphenyl]-3-yl)-5-(quinoxalin-6-yl)-4,5-dihydro-1H-pyrazol-1-yl)-4-oxobutanoic acid]	76 ± 1.4	5.4 ± 0.2	
CC(C)Oc1ccc(-c2ccc(C3=NN(C(=O)CCC(=O)NS(C)(=O)=O)C(c4ccc5nccnc5c4)C3)cc2)cc1 (stereo not drawn) [Compound 117, 4-(3-(4′-Isopropoxy-[1,1′-biphenyl]-4-yl)-5-(quinoxalin-6-yl)-4,5-dihydro-1H-pyrazol-1-yl)-N-(methylsulfonyl)-4-oxobutanamide]		72.5 ± 4	9.1 ± 2.4
CCC(C)Oc1ccc(-c2ccc(C3=NN(C(=O)CCC(=O)O)C(c4ccc5nccnc5c4)C3)cc2)cc1 (stereo not drawn) [Compound 83, 4-(3-(4′-(sec-Butoxy)-[1,1′-biphenyl]-4-yl)-5-(quinoxalin-6-yl)-4,5-dihydro-1H-pyrazol-1-yl)-4-oxobutanoic acid]		69.2 ± 1.8	< 5
COc1cc(C2CC(c3ccc(Cl)cc3)=NN2C(=O)CCC(=O)O)ccc1F (stereo not drawn) [Compound 48, 4-(3-(4-Chlorophenyl)-5-(4-fluoro-3-methoxyphenyl)-4,5-dihydro-1H-pyrazol-1-yl)-4-oxobutanoic acid]	43.6 ± 4.5		
O=C(O)CCC(=O)N1N=C2c3ccc(Cl)cc3CCC2C1c1ccc2nccnc2c1 (stereo not drawn) [Compound 73, 4-(7-Chloro-3-(quinoxalin-6-yl)-3,3a,4,5-tetrahydro-2H-benzo[g]indazol-2-yl)-4-oxobutanoic acid]	78 ± 1.9	18.8 ± 1.6	
O=C(O)CCCC(=O)N1N=C(c2ccc(Cl)cc2)CC1c1ccc2nccnc2c1 (stereo not drawn) [Compound 50, 5-(3-(4-Chlorophenyl)-5-(quinoxalin-6-yl)-4,5-dihydro-1H-pyrazol-1-yl)-5-oxopentanoic acid]	66.4 ± 2.9		
CS(=O)(=O)NC(=O)CCC(=O)N1N=C(c2cccc(-c3ccccc3)c2)CC1c1ccc2nccnc2c1 (stereo not drawn) [Compound 68, 4-(3-([1,1′-Biphenyl]-3-yl)-5-(quinoxalin-6-yl)-4,5-dihydro-1H-pyrazol-1-yl)-N-(methylsulfonyl)-4-oxobutanamide]		85.4 ± 0.5	20.5 ± 1.4
CC(C)Oc1ccc(-c2ccc(C3=NN(C(=O)CCC(=O)O)C(c4ccc5nccnc5c4)C3)cc2)cc1F (stereo not drawn) [Compound 100, 4-(3-(3′-Fluoro-4′-isopropoxy-[1,1′-biphenyl]-4-yl)-5-(quinoxalin-6-yl)-4,5-dihydro-1H-pyrazol-1-yl)-4-oxobutanoic acid]		89.2 ± 3	25 ± 7.8
O=C(O)CCC(=O)N1N=C(c2ccc(-c3ccc4[nH]ccc4c3)cc2)CC1c1ccc2nccnc2c1 (stereo not drawn) [Compound 106, 4-(3-(4-(1H-Indol-5-yl)phenyl)-5-(quinoxalin-6-yl)-4,5-dihydro-1H-pyrazol-1-yl)-4-oxobutanoic acid]	26 ± 2.5	< 5	
CS(=O)(=O)NC(=O)c1cccc(N2N=C(c3ccc(Cl)cc3)CC2c2ccc3nccnc3c2)c1 (stereo not drawn) [Compound 72, 3-(3-(4-Chlorophenyl)-5-(quinoxalin-6-yl)-4,5-dihydro-1H-pyrazol-1-yl)-N-(methylsulfonyl)benzamide]		82.5 ± 2.5	14.3 ± 4.7
O=C(O)CCC(=O)N1N=C(c2ccc(Cl)cc2)CC1c1cnc2ccccc2n1 (stereo not drawn) [Compound 32, 4-(3-(4-Chlorophenyl)-5-(quinoxalin-2-yl)-4,5-dihydro-1H-pyrazol-1-yl)-4-oxobutanoic acid]	81 ± 2	< 5	
CC(C)S(=O)(=O)NC(=O)CCC(=O)N1N=C(c2ccc(Cl)cc2)CC1c1ccc2nccnc2c1 (stereo not drawn) [Compound 58]	93.9 ± 4.7	80.4 ± 6.3	6 ± 1.6
COc1ccc(C2CC(c3ccc(Cl)cc3)=NN2C(=O)CCC(=O)O)c(OC)c1 (stereo not drawn) [Compound 42, 4-(3-(4-Chlorophenyl)-5-(2,4-dimethoxyphenyl)-4,5-dihydro-1H-pyrazol-1-yl)-4-oxobutanoic acid]	80 ± 4.7	10.5 ± 3.5	
O=C(O)CCC(=O)N1N=C(c2ccc(C3CCCCC3)cc2)CC1c1ccc2nccnc2c1 (stereo not drawn) [Compound 4, 4-(3-(4-Cyclohexylphenyl)-5-(quinoxalin-6-yl)-4,5-dihydro-1H-pyrazol-1-yl)-4-oxobutanoic acid]	79.5 ± 4.4	< 5	
O=C(O)CCC(=O)N1N=C(c2ccc(-c3ccccc3)c(F)c2)CC1c1ccc2nccnc2c1 (stereo not drawn) [Compound 110, 4-(3-(2-Fluoro-[1,1′-biphenyl]-4-yl)-5-(quinoxalin-6-yl)-4,5-dihydro-1H-pyrazol-1-yl)-4-oxobutanoic acid]		40.4 ± 7.6	
O=C(O)CCC(=O)N1N=C(c2ccccc2-c2ccccc2)CC1c1ccc2nccnc2c1 (stereo not drawn) [Compound 12, 4-(3-([1,1′-Biphenyl]-2-yl)-5-(quinoxalin-6-yl)-4,5-dihydro-1H-pyrazol-1-yl)-4-oxobutanoic acid]	95.9 ± 0.9	51.6 ± 1.5	
CC(C)c1ccc(C2=NN(C(=O)CCC(=O)O)C(c3ccc4nccnc4c3)C2)cc1 (stereo not drawn) [Compound 3, 4-(3-(4-Isopropylphenyl)-5-(quinoxalin-6-yl)-4,5-dihydro-1H-pyrazol-1-yl)-4-oxobutanoic acid]	78.6 ± 1.1	5.5 ± 2.8	
CC(C)S(=O)(=O)NC(=O)CCC(=O)N1N=C(c2cccc(-c3ccccc3)c2)CC1c1ccc2nccnc2c1 (stereo not drawn) [Compound 119, 4-(3-([1,1′-Biphenyl]-3-yl)-5-(quinoxalin-6-yl)-4,5-dihydro-1H-pyrazol-1-yl)-N-(isopropylsulfonyl)-4-oxobutanamide]		81.8 ± 2.7	11.9 ± 2.7
O=C(O)CCC(=O)N1N=C(c2ccc(-c3cccc(Cl)c3)cc2)CC1c1ccc2nccnc2c1 (stereo not drawn) [Compound 18, 4-(3-(3′-Chloro-[1,1′-biphenyl]-4-yl)-5-(quinoxalin-6-yl)-4,5-dihydro-1H-pyrazol-1-yl)-4-oxobutanoic acid]	94.1 ± 0.1	83.6 ± 1.5	< 5
CCCOc1ccc(-c2ccc(C3=NN(C(=O)CCC(=O)O)C(c4ccc5nccnc5c4)C3)cc2)cc1 (stereo not drawn) [Compound 78, 4-Oxo-4-(3-(4′-propoxy-[1,1′-biphenyl]-4-yl)-5-(quinoxalin-6-yl)-4,5-dihydro-1H-pyrazol-1-yl)butanoic acid]		88.8 ± 2	39.8 ± 18.5
O=C(O)CCC(=O)N1N=C(c2ccc(-c3cccnc3)cc2)CC1c1ccc2nccnc2c1 (stereo not drawn) [Compound 30, 4-Oxo-4-(3-(4-(pyridin-3-yl)phenyl)-5-(quinoxalin-6-yl)-4,5-dihydro-1H-pyrazol-1-yl)butanoic acid]	9.3 ± 2.8		
O=C(O)CCC(=O)N1N=C(c2ccc(-c3ccc(C(F)(F)F)cc3)cc2)CC1c1ccc2nccnc2c1 (stereo not drawn) [Compound 20, 4-Oxo-4-(5-(quinoxalin-6-yl)-3-(4′-(trifluoromethyl)-[1,1′-biphenyl]-4-yl)-4,5-dihydro-1H-pyrazol-1-yl)butanoic acid]		37.2 ± 5.9	
O=C(O)CC(=O)N1N=C(c2ccc(Cl)cc2)CC1c1ccc2nccnc2c1 (stereo not drawn) [Compound 49, 3-(3-(4-Chlorophenyl)-5-(quinoxalin-6-yl)-4,5-dihydro-1H-pyrazol-1-yl)-3-oxopropanoic acid]	8.1 ± 7.7		
O=C(O)CCC(=O)N1N=C(c2ccc(Cl)cc2)CC1c1ccc2c(c1)OCCO2 (stereo not drawn) [Compound 39, 4-(3-(4-Chlorophenyl)-5-(2,3-dihydrobenzo[b][1,4]dioxin-6-yl)-4,5-dihydro-1H-pyrazol-1-yl)-4-oxobutanoic acid]	79.2	20 ± 5.1	
CC(C)Cc1ccc(-c2ccc(C3=NN(C(=O)CCC(=O)O)C(c4ccc5nccnc5c4)C3)cc2)cc1 (stereo not drawn) [Compound 86, 4-(3-(4′-Isobutyl-[1,1′-biphenyl]-4-yl)-5-(quinoxalin-6-yl)-4,5-dihydro-1H-pyrazol-1-yl)-4-oxobutanoic acid]		29 ± 8.6	
COCc1ccc(-c2ccc(C3=NN(C(=O)CCC(=O)O)C(c4ccc5nccnc5c4)C3)cc2)cc1 (stereo not drawn) [Compound 89, 4-(3-(4′-(Methoxymethyl)-[1,1′-biphenyl]-4-yl)-5-(quinoxalin-6-yl)-4,5-dihydro-1H-pyrazol-1-yl)-4-oxobutanoic acid]	85 ± 1.7	21.9 ± 7	

Reference: patent publication US20260053171A1, “METHANOGEN INHIBITORS” (AGRIZERONZ LIMITED PARTNERSHIP, priority 2022, published 2026)
